The text below walks through data of PubChem BioAssay AID256 (DTP/NCI, 2004).

The test system of the assay is CD2F1 mice, L1210 leukemia ip, survival T/C. Nature of the assay: NCI In Vivo Anticancer Drug Screen. Data for tumor model L1210 Leukemia (intraperitoneal) in CD2F1 (CDF1) mice. Particulars: higher = longer survival. A digest of the protocol:
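Read-out first: treated-group measurement over vehicle-control measurement, expressed as a ratio. Animals bore a transplanted tumor line and were dosed with compound or vehicle.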

Setting [1] is: endpoint: mean survival time, dose: 12.5 mg/kg/injection, schedule: Q01DX009 (ip), vehicle: saline with Tween-80.
The mark [2] stands for this setting: endpoint: mean survival time, dose: 25.0 mg/kg/injection, schedule: Q01DX009 (ip), vehicle: saline with Tween-80.

“And” between values parts separate entries of the source, which are not always exact repeats. Equal values may be shown once. Toxic doses and inconclusive results are not listed.

On to `OCN(CO)c1nc(N(CO)CO)nc(N(CO)CO)n1`, for which the T/C was 92 % of control (endpoint: mean survival time, dose: 6.3 mg/kg/injection, schedule: Q01DX009 (ip), vehicle: saline with Tween-80); 96 % of control under setting [1]; 87 % of control under setting [2].
`Nc1nc(N2CCCCC2)c2ncn(C3OC(CO)C(O)C3O)c2n1` (centres undefined): the T/C runs as follows: (endpoint: mean survival time, dose: 12.5 mg/kg/injection, schedule: Q01DX005 (ip), vehicle: water) 106 % of control; (endpoint: mean survival time, dose: 25.0 mg/kg/injection, schedule: Q01DX005 (ip), vehicle: water) 101 % of control; (endpoint: mean survival time, dose: 50.0 mg/kg/injection, schedule: Q01DX005 (ip), vehicle: water) 112 % of control; (endpoint: mean survival time, dose: 100.0 mg/kg/injection, schedule: Q01DX005 (ip), vehicle: water) 96 % of control; (endpoint: mean survival time, dose: 200.0 mg/kg/injection, schedule: Q01DX005 (ip), vehicle: water) 108 % of control.
As to `COc1cc(OC)c(NC(=O)Oc2ccc(C=O)cc2OC)cc1Cl`, the T/C is 86 % of control (endpoint: mean survival time, dose: 50.0 mg/kg/injection, schedule: Q01DX009 (ip), vehicle: saline with Tween-80) and 96 % of control (endpoint: mean survival time, dose: 100.0 mg/kg/injection, schedule: Q01DX009 (ip), vehicle: saline with Tween-80).
Turning to `O=[As](O)(O)c1cccc2ccccc12`, the T/C is, setting by setting: (endpoint: mean survival time, dose: 1.25 mg/kg/injection, schedule: Q01DX009 (ip), vehicle: saline) 90 % of control; (endpoint: mean survival time, dose: 2.5 mg/kg/injection, schedule: Q01DX009 (ip), vehicle: saline) 111 % of control.
Regarding `CN(C)c1ccc([N+](=O)[O-])cc1[N+](=O)[O-]`, the T/C reads like this: (endpoint: mean survival time, dose: 62.5 mg/kg/injection, schedule: Q01DX001 (ip), vehicle: Klucel (hydroxypropylcellulose) (HPC)) 94 % of control; (endpoint: mean survival time, dose: 125.0 mg/kg/injection, schedule: Q01DX001 (ip), vehicle: Klucel (hydroxypropylcellulose) (HPC)) 94 % of control; (endpoint: mean survival time, dose: 250.0 mg/kg/injection, schedule: Q01DX001 (ip), vehicle: Klucel (hydroxypropylcellulose) (HPC)) 92 % of control; (endpoint: mean survival time, dose: 500.0 mg/kg/injection, schedule: Q01DX001 (ip), vehicle: Klucel (hydroxypropylcellulose) (HPC)) 102 % of control.
`O=CNc1cc([N+](=O)[O-])ccc1OCc1ccccc1`: the T/C was 100 % of control (endpoint: mean survival time, dose: 100.0 mg/kg/injection, schedule: Q01DX001 (ip), vehicle: saline); 97 % of control (endpoint: mean survival time, dose: 200.0 mg/kg/injection, schedule: Q01DX001 (ip), vehicle: saline); 96 % of control (endpoint: mean survival time, dose: 400.0 mg/kg/injection, schedule: Q01DX001 (ip), vehicle: saline).
Take `C/C(=N\Nc1ccc([N+](=O)[O-])cc1[N+](=O)[O-])C1CCC(=O)O1` (centres undefined): the T/C by setting is: (endpoint: mean survival time, dose: 50.0 mg/kg/injection, schedule: Q01DX001 (ip), vehicle: saline with Tween-80) 109 % of control; (endpoint: mean survival time, dose: 100.0 mg/kg/injection, schedule: Q01DX001 (ip), vehicle: saline with Tween-80) 103 % of control; (endpoint: mean survival time, dose: 200.0 mg/kg/injection, schedule: Q01DX001 (ip), vehicle: saline with Tween-80) 103 % of control.
Regarding `O=[N+]([O-])c1ccc(/C=N/O)s1`, the T/C under setting [1] is 106 % of control and the T/C under setting [2] is 98 % of control.
As to `COc1ccc2c(c1)-c1nn(CCCN(C)C)c3ccc([N+](=O)[O-])c(c13)N2`, the T/C by setting is: (endpoint: median survival time, dose: 3.12 mg/kg/injection, schedule: Q01DX005 (ip), vehicle: water) 152 % of control; (endpoint: median survival time, dose: 3.12 mg/kg/injection, schedule: Q01DX009 (ip), vehicle: water) 168 % of control; (endpoint: median survival time, dose: 6.25 mg/kg/injection, schedule: Q01DX005 (ip), vehicle: water) 152 % of control; (endpoint: median survival time, dose: 6.25 mg/kg/injection, schedule: Q01DX009 (ip), vehicle: water) 216 % of control; (endpoint: median survival time, dose: 7.5 mg/kg/injection, schedule: Q01DX005 (ip), vehicle: water) 164 % of control; (endpoint: median survival time, dose: 12.5 mg/kg/injection, schedule: Q01DX005 (ip), vehicle: water) 180 % of control. Moreover, the T/C is 113 % of control (endpoint: median survival time, dose: 12.5 mg/kg/injection, schedule: Q01DX009 (ip), vehicle: water); 225 % of control (endpoint: median survival time, dose: 20.83 mg/kg/injection, schedule: Q01DX005 (ip), vehicle: water); 109 % of control (endpoint: median survival time, dose: 25.0 mg/kg/injection, schedule: Q01DX005 (ip), vehicle: water); 107 % of control (endpoint: median survival time, dose: 34.72 mg/kg/injection, schedule: Q01DX005 (ip), vehicle: water); 92 % of control and 94 % of control (endpoint: median survival time, dose: 50.0 mg/kg/injection, schedule: Q01DX005 (ip), vehicle: water); 116 % of control (endpoint: median survival time, dose: 50.0 mg/kg/injection, schedule: Q01DX009 (ip), vehicle: water).
On to `CC(=O)NC(CC(=O)O)C(=O)NNC(=O)c1ccccc1O` (centres undefined), for which the T/C reads like this: (endpoint: mean survival time, dose: 25.0 mg/kg/injection, schedule: Q01DX009 (ip), vehicle: Klucel (hydroxypropylcellulose) (HPC)) 108 % of control; (endpoint: mean survival time, dose: 50.0 mg/kg/injection, schedule: Q01DX009 (ip), vehicle: Klucel (hydroxypropylcellulose) (HPC)) 115 % of control; (endpoint: mean survival time, dose: 100.0 mg/kg/injection, schedule: Q01DX009 (ip), vehicle: Klucel (hydroxypropylcellulose) (HPC)) 104 % of control.
With `CC(=O)OCC1OC(Nc2nncs2)C(OC(C)=O)C1OC(C)=O` (centres undefined), the T/C (endpoint: median survival time, dose: 12.5 mg/kg/injection, schedule: Q01DX005 (ip), vehicle: distilled water + Tween-80) was 97 % of control; the T/C (endpoint: median survival time, dose: 25.0 mg/kg/injection, schedule: Q01DX005 (ip), vehicle: distilled water + Tween-80) was 96 % of control; the T/C (endpoint: median survival time, dose: 50.0 mg/kg/injection, schedule: Q01DX005 (ip), vehicle: distilled water + Tween-80) is 102 % of control; the T/C (endpoint: median survival time, dose: 100.0 mg/kg/injection, schedule: Q01DX005 (ip), vehicle: distilled water + Tween-80) was 100 % of control; the T/C (endpoint: median survival time, dose: 200.0 mg/kg/injection, schedule: Q01DX005 (ip), vehicle: distilled water + Tween-80) was 100 % of control.
With `CCOC(=O)C(=O)C[n+]1cc2ccccc2cc1/C=N/O`, the T/C is, setting by setting: (endpoint: mean survival time, dose: 100.0 mg/kg/injection, schedule: Q04DX003 (ip), vehicle: saline) 105 % of control; (endpoint: mean survival time, dose: 200.0 mg/kg/injection, schedule: Q04DX003 (ip), vehicle: saline) 105 % of control; (endpoint: mean survival time, dose: 400.0 mg/kg/injection, schedule: Q04DX003 (ip), vehicle: saline) 94 % of control.
As to `CCc1ccc2c(c1)N(CCCN(CCCl)CCCl)c1ccccc1S2`, the T/C (endpoint: mean survival time, dose: 18.0 mg/kg/injection, schedule: Q01DX001 (ip), vehicle: saline) was 97 % of control; the T/C (endpoint: mean survival time, dose: 28.0 mg/kg/injection, schedule: Q01DX001 (ip), vehicle: saline) is 108 % of control; the T/C (endpoint: mean survival time, dose: 40.0 mg/kg/injection, schedule: Q01DX001 (ip), vehicle: saline) is 103 % of control; the T/C (endpoint: mean survival time, dose: 60.0 mg/kg/injection, schedule: Q01DX001 (ip), vehicle: saline with Tween-80) was 90 % of control.
`Cc1ccc(-c2nc3ncnc(N)c3[nH]2)cc1[N+](=O)[O-]`: the T/C by setting is: (endpoint: mean survival time, dose: 37.5 mg/kg/injection, schedule: Q01DX001 (ip), vehicle: saline with Tween-80) 101 % of control; (endpoint: mean survival time, dose: 75.0 mg/kg/injection, schedule: Q01DX001 (ip), vehicle: saline with Tween-80) 90 % of control; (endpoint: mean survival time, dose: 150.0 mg/kg/injection, schedule: Q01DX001 (ip), vehicle: saline with Tween-80) 88 % of control.
For the compound `C/C(=N\N=C(/[Se])N1CC2CCC(CC2)C1)c1ccccn1`, the T/C by setting is: (endpoint: median survival time, dose: 0.75 mg/kg/injection, schedule: Q01DX009 (ip), vehicle: Klucel (hydroxypropylcellulose) (HPC)) 101 % of control; (endpoint: median survival time, dose: 1.5 mg/kg/injection, schedule: Q01DX009 (ip), vehicle: Klucel (hydroxypropylcellulose) (HPC)) 103 % of control; (endpoint: median survival time, dose: 1.56 mg/kg/injection, schedule: Q01DX009 (ip), vehicle: Klucel (hydroxypropylcellulose) (HPC)) 93 % of control and 101 % of control; (endpoint: median survival time, dose: 3.0 mg/kg/injection, schedule: Q01DX009 (ip), vehicle: Klucel (hydroxypropylcellulose) (HPC)) 102 % of control; (endpoint: median survival time, dose: 3.12 mg/kg/injection, schedule: Q01DX009 (ip), vehicle: Klucel (hydroxypropylcellulose) (HPC)) 97 % of control and 110 % of control; (endpoint: median survival time, dose: 6.0 mg/kg/injection, schedule: Q01DX009 (ip), vehicle: Klucel (hydroxypropylcellulose) (HPC)) 104 % of control. Also, the T/C by setting is: (endpoint: median survival time, dose: 6.25 mg/kg/injection, schedule: Q01DX009 (ip), vehicle: Klucel (hydroxypropylcellulose) (HPC)) 86 % of control; (endpoint: median survival time, dose: 12.0 mg/kg/injection, schedule: Q01DX009 (ip), vehicle: Klucel (hydroxypropylcellulose) (HPC)) 102 % of control; (endpoint: median survival time, dose: 12.5 mg/kg/injection, schedule: Q01DX009 (ip), vehicle: Klucel (hydroxypropylcellulose) (HPC)) 109 % of control; (endpoint: median survival time, dose: 25.0 mg/kg/injection, schedule: Q01DX009 (ip), vehicle: Klucel (hydroxypropylcellulose) (HPC)) 89 % of control.
